In patent US10294202B2, “Pyrrolidinones as herbicides” (FMC Corporation, priority 2013, dated 2019):

Columns and labels:
Rice, W.S. Jap = experiment: Test F flood (paddy) test; assay type: in vivo, Oryza sativa cv. Japonica—M202; details: 21 d, scale 0-100
How it was run: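 Compounds were applied directly to paddy water held 3 cm above silt loam soil, with rice and weeds at the 2.0–2.5-leaf stage, grown in a greenhouse at 30/27° C under a 16-h photoperiod. Visual ratings (0 no effect to 100 complete control) were made against untreated controls after 21 d.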

soybean (GLXMA) = experiment: Test H preemergence mixture test (Colby); assay type: in vivo, Glycine max; details: for Plant response rating, Obsd., GLXMA: 21 d after treatment, scale 0 to 100; for GLXMA Obsd.: applied alone, 21 d, mean of three replicates, scale 0-100
waterhemp (AMATA) = experiment: Test H preemergence mixture test (Colby); assay type: in vivo, Amaranthus rudis; details: for Plant response rating, Obsd., AMATA: 21 d after treatment, scale 0 to 100; for AMATA Obsd.: applied alone, 21 d, mean of three replicates, scale 0-100
From the text: Colby's Equation was used to determine the herbicidal effects expected from the mixtures. Colby's Equation (Colby, S. R. “Calculating Synergistic and Antagonistic Responses of Herbicide Combinations,” Weeds, 15(1), pp 20-22 (1967)) calculates the expected additive effect of herbicidal mixtures and for two active ingredients is of the form: Pa+b=Pa+Pb−(PaPb/100)
where • Pa+b is the percentage effect of the mixture expected from additive contribution of the individual components: • Pa is the observed percentage effect of the first active ingredient at the same use rate as in the mixture, and • Pb is the observed percentage effect of the second active ingredient at the same use rate as in the mixture. In the following Tables, rates are shown in grams of active ingredient per hectare (g a.i./ha); “Obsd.” is the observed effect. “Exp.” is the expected effect calculated from Colby's Equation.
This test evaluated the effect of mixtures of compound 80 with several commercial herbicides on four plant species. Seeds of plant species selected from corn (ZEAMD, Zea mays), soybean (GLXMA, Glycine max), waterhemp (common waterhemp, AMATA, Amaranthus rudis), and giant foxtail (SETFA, Setaria faberii) were planted into a silt loam soil and treated preemergence with test chemicals formulated in a non-phytotoxic solvent mixture which included a surfactant and applied using a volume of 281 L/ha. Each treatment was replicated three times. Treated plants and controls were maintained in a greenhouse using supplemental lighting to maintain a photoperiod of about 16 h; daytime and nighttime temperatures were about 24-30° C. and 19-21° C., respectively. Nutrients were applied using a balanced fertilizer applied through the watering system. At 21 d after treatment, all species were compared to controls and visually evaluated. Plant response ratings were calculated as the means of the three replicates, are summarized in Tables H1 through H5, and are based on a scale of 0 to 100 where 0 is no effect and 100 is complete control. A dash (-) response means no test result. The Expected (Exp.) results were calculated using Colby's Equation as described for Test G above.

giant foxtail (SETFA) = experiment: Test H preemergence mixture test (Colby); assay type: in vivo, Setaria faberii; details: for Plant response rating, Obsd., SETFA: 21 d after treatment, scale 0 to 100; for SETFA Obsd.: applied alone, 21 d, mean of three replicates, scale 0-100
ducksalad (HETLI) = experiment: Test G paddy mixture test (Colby); assay type: in vivo, Heteranthera limosa; details: applied alone, 14 d; for HETLI Obsd.: scale 0-100; for HETLI Obsd. plant response rating (scale 0 to 100): flooded
How it was run: (§1)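 Weeds sown in Tama soil tubs; barnyardgrass and transplanted japonica rice grown in plug flats. Treated at 2.0–2.5 leaf stage; visual rating 0–100 versus controls after 14 d in greenhouse. Expected mixture effect calculated with Colby's equation; rates in g a.i. per area.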

barnyardgrass (ECHCG) = experiment: Test G paddy mixture test (Colby); assay type: in vivo, Echinochloa crus-galli; details: applied alone, 14 d; for ECHCG Obsd.: scale 0-100; for ECHCG Obsd. plant response rating (scale 0 to 100): flooded
How it was run: as §1

Rice, Water Seeded = experiment: Test F flood (paddy) test; assay type: in vivo, Oryza sativa; details: 62 g ai/ha, 21 d, scale 0-100
From the text: Three plastic pots (ca. 16-cm diameter) per rate were partially filled with sterilized Tama silt loam soil comprising a 35:50:15 ratio of sand, silt and clay and 2.6% organic matter. Separate plantings for each of the three pots were as follows. Seeds from the U.S. of monochoria (Monochoria vaginalis), sedge, umbrella (small-flower umbrella sedge, Cyperus difformis), bulrush, […] bulrush, Scirpus juncoides), and […] (purple […] coccinea), were planted into one 16-cm pot for each rate. Seeds from the U.S. of flatsedge, rice (rice flatsedge, Cyperus iria), sprangletop, Brdd. (bearded sprangletop, Leptochloa fascicularis), one stand of 9 or 10 water seeded rice seedlings (Rice, W.S. Jap, Oryza sativa cv. 'Japonica-[…]' or Rice, W.S. Ind, 'Indica'), and two stands of 3 or 4 seedlings of rice, transplanted (transplanted rice, Oryza sativa cv. 'Japonica-[…]') were planted into one 16-cm pot for each rate. Seeds from the U.S. of barnyardgrass (Echinochloa crus-galli), […] (common […], Alisma plantago-aquatica), and watergrass, late (late watergrass, Echinochloa oryzicola) were planted into one 16-cm pot for each rate. Plantings were sequential so that crop and weed species were at the 2.0 to 2.5-leaf stage at time of treatment. […] Effects of treatments on rice and weeds were visually evaluated by comparison to untreated controls after 21 d. […]

For `O=C1NCC(c2ccc(F)c(F)c2)C1C(=O)Nc1cccc(F)c1F` (centres unmarked) [Compound 17, N-(2,3-difluorophenyl)-4-(3,4-difluorophenyl)-2-oxo-3-pyrrolidinecarboxamide], the “Plant response rating, Rice, W.S. Jap” value (Rice, W.S. Jap; 125 g ai/ha) was 0, the “Plant response rating, Rice, W.S. Jap” value (Rice, W.S. Jap; 250 g ai/ha) was 15 and the “Plant response rating, Rice, W.S. Jap” value (Rice, W.S. Jap; 500 g ai/ha) was 15. For the same compound, the “Plant response rating, Rice, W.S. Jap” value (Rice, W.S. Jap; 1000 g ai/ha) was 60 and the “Plant response rating, Rice, W.S. Jap” value (Rice, W.S. Jap; 2000 g ai/ha) was 85.
With `O=C1NCC(c2ccc(C(F)(F)F)cc2)C1C(=O)Nc1cccc(F)c1F` (centres unmarked) [Compound 80, N-(2,3-difluorophenyl)-2-oxo-4-[4-(trifluoromethyl)phenyl]-3-pyrrolidinecarboxamide] the “Plant response rating, Obsd., GLXMA” value (soybean (GLXMA); Cmpd 80 alone 62 g a.i./ha) was 12, the “Plant response rating, Obsd., GLXMA” value (soybean (GLXMA); Cmpd 80 alone 125 g a.i./ha) was 0 and the “GLXMA Obsd.” value (soybean (GLXMA); 62 g a.i./ha) was 12. The “GLXMA Obsd.” value (soybean (GLXMA); 125 g a.i./ha) was 0, the “Plant response rating, Obsd., AMATA” value (waterhemp (AMATA); Cmpd 80 alone 62 g a.i./ha) was 0 and the “Plant response rating, Obsd., AMATA” value (waterhemp (AMATA); Cmpd 80 alone 125 g a.i./ha) was 33. For the same compound, the “AMATA Obsd.” value (waterhemp (AMATA); 62 g a.i./ha) was 0, the “AMATA Obsd.” value (waterhemp (AMATA); 125 g a.i./ha) was 33 and the “Plant response rating, Obsd., SETFA” value (giant foxtail (SETFA); Cmpd 80 alone 62 g a.i./ha) was 52. The “Plant response rating, Obsd., SETFA” value (giant foxtail (SETFA); Cmpd 80 alone 125 g a.i./ha) was 78, the “SETFA Obsd.” value (giant foxtail (SETFA); 62 g a.i./ha) was 52 and the “SETFA Obsd.” value (giant foxtail (SETFA); 125 g a.i./ha) was 78.
`O=C1NC[C@H](c2cccc(C(F)(F)F)c2)[C@H]1C(=O)Nc1ccccc1F` [Compound 204, (3R,4S)—N-(2-fluorophenyl)-2-oxo-4-[3-(trifluoromethyl)phenyl]-3-pyrrolidinecarboxamide] was tested, and the “HETLI Obsd.” value (ducksalad (HETLI); 125 g a.i./ha) was 100, the “HETLI Obsd. plant response rating (scale 0 to 100)” value (ducksalad (HETLI); 125 g a.i./ha) was 100 and the “HETLI Obsd.” value (ducksalad (HETLI); 500 g a.i./ha) was 100. The “HETLI Obsd. plant response rating (scale 0 to 100)” value (ducksalad (HETLI); 500 g a.i./ha) was 100, the “ECHCG Obsd.” value (barnyardgrass (ECHCG); 125 g a.i./ha) was 65 and the “ECHCG Obsd. plant response rating (scale 0 to 100)” value (barnyardgrass (ECHCG); 125 g a.i./ha) was 65. The “ECHCG Obsd.” value (barnyardgrass (ECHCG); 500 g a.i./ha) was 90 and the “ECHCG Obsd. plant response rating (scale 0 to 100)” value (barnyardgrass (ECHCG); 500 g a.i./ha) was 90.
For `CN1CC(c2ccc(F)c(F)c2)C(C(=O)Nc2cccc(F)c2F)C1=O` (centres unmarked) [Compound 303], the “Plant response rating, Rice, Water Seeded” value (Rice, Water Seeded) was 0.
